From US6835382B2, “Ii peptide therapeutics to enhance antigen presentation” (University of Massachusetts, priority 1996, dated 2004)
Positions of bridges follow the written chain, without caps; N, C: chain ends. Non-standard residues stand in square brackets, D forms with d. No end group written: not given here. hArg = N=C(N)NCCCC[C@H](N)C(=O)O; Cit = NC(=O)NCCC[C@H](N)C(=O)O

What was measured:
[1] = molecular target: T1, murine E^d MHC class II allele (Mus musculus, UniProt P01904+P01915); test: antigenic peptide prepulse assay, E^d allele (fixed APC prepulsed with HEL106-116); format: cell-based; parameters: The A20 and CH27 B cell lymphoma lines express H-2^d and H-2^k alleles, respectively; endogenous in cells; host or cells: A20 B cell lymphoma (mitomycin C-treated or paraformaldehyde-fixed); conditions: AE peptide 64 μM, prepulse 24 μM antigenic peptide; for Activity in antigenic peptide prepulse assay, E^d (baseline = 1.00): Table 25
T1 sequence (P01904 26-255): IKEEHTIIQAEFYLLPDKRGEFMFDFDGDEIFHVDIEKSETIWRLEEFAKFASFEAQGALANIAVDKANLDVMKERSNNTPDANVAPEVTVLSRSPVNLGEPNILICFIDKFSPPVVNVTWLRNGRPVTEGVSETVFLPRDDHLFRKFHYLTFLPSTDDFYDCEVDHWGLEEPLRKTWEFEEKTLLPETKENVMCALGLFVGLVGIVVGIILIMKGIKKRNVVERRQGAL
T1 sequence (P01915 27-264 limits assumed): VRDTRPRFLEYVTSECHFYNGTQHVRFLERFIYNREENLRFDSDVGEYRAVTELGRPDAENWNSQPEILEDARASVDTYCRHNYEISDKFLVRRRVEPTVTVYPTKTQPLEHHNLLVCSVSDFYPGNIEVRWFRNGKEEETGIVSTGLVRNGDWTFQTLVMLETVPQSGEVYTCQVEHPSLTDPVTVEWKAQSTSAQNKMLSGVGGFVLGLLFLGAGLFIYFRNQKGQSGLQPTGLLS
Method: (§1) In a second type of assay, the “peptide prepulse assay”, the antigenic peptide is incubated with paraformaldehyde-fixed APC for 6 h. The APC are washed and incubated for 24 h with the AE101 series homolog and the T cell hybridoma specific for the antigenic peptide. After that incubation, an aliquot of the culture supernatant is transferred to a second culture to measure the relative degree of T hybridoma stimulation, as reflected in the effect of released interleukins on the growth of an interleukin-dependent, indicator cell line, as described above.
(§2) The two above described assays measure different aspects of the molecular mechanism of the AE101 series of peptides. In the “simultaneous assay”, AE101 series peptides are thought to induce the release of endogenously bound peptides and to permit the binding of the second, specific antigenic peptide which is relatively abundant in the culture fluid. The AE101 series peptides enhance antigenic peptide-specific T cell responses in simultaneous assays. In the “peptide prepulse” assay, the specific antigenic peptide becomes bound to MHC class II molecules on the surface of the fixed APC during the 6 h prepulse incubation. The effect of the AE101 series homologs is then thought to release that antigenic peptide, resulting in an apparent suppression of the immune response.
(§3) The AE101 series peptides are thought to contact the MHC class II molecules at a discrete site outside the antigenic peptide-binding groove. AE101 peptide binding to this “Ii-KEY” site is thought to induce a conformational change in the MHC class II molecules accelerating the dissociation of previously bound antigenic peptide. […] The AE101 series peptides thus inhibit antigenic peptide-specific T cell responses in the “peptide prepulse” assays.
(§4) Antigenic peptide-specific T cell activation was measured by the following procedure. Mitomycin C-treated A20 cells (A^dE^d) or CH27 cells APC (A^kE^k) were generated by incubating 5×10^6 cells/mL for 20 min at 37° C. with 0.025 mg/mL of mitomycin C (Sigma) in Dulbecco's Modified Eaglel's Medium (DMEM)/10 mM N-2(hydroxyethylpiperazine-N″[2-ethanesulfonic acid] (HEPES), followed by two washes with four volumes of DMEM-5% fetal calf serum (FCS), 10 mM HEPES. Fixed APC were generated by treating 1×10^6 cells/mL for 5 min with 0.5% paraformaldehyde in PBS (pH 7.2), followed by two washes with four volumes of DMEM-10% FCS, 10 mM HEPES. T cell hybridomas were irradiated 2200 rads before each assay.
(§5) The “peptide prepulse assay” was carried out under essentially the same conditions as described for the “simultaneous assay” with the following modifications. Fixed APC were first incubated for 6 h at 1×10^6 cells/mL in complete DMEM-5% FCS in 24-well microculture plates (1 mL/well) with antigenic peptide, followed by four washes with 10 volumes of DMEM-5% FCS. The cells were then exposed to varying concentrations of AE101 series peptide (64 μM, 16 μM, 4 μM, and 1 μM) for 24 h in the presence of the T cell hybridoma specific to the antigenic peptide. Interleukin release from these cultures was measured by proliferation of HT-2 cells to interleukins in supernatants transferred from the primary culture. Generally, a single dose of 64 μM of each AE101 series peptide was used. The baseline T cell response was measured by culturing T hybridoma cells with the antigenic peptide-prepulsed APC in the absence of AE101 series peptides.
[…] […] Paraformaldehyde-treated APC (fixed APC) expressing MHC class II molecules were incubated with antigenic peptide for 6 h (HEL106-116 for E^d and PGCC81-104 for E^k). After this incubation, the prepulsed APC were washed and cultured with T hybridoma cells and AE101 series peptides. […] The AE101 series peptide concentrations were 64 μM for E^d and 16 μM for E^k. The dilutions of supernatant taken into the HT-2 cell assay were 1:4 for Ed and 1:2 for E^k.

[2] = test system: murine E^k MHC class II allele; test: antigenic peptide prepulse assay, E^k allele (fixed APC prepulsed with PGCC81-104); format: cell-based; conditions: AE peptide 64 μM; for Activity in antigenic peptide prepulse assay, E^k (baseline = 1.0): prepulse 1.25 μM antigenic peptide; for Activity in antigenic peptide prepulse assay, E^k (baseline = 1.00): Table 25, prepulse 2.5 μM antigenic peptide, supernatant 1:10
Method: as §1, §2, §3, §4, §5
Table 19: Activities of C-terminal truncation analogs of AE101 in an antigenic peptide prepulse assay. […] Paraformaldehyde-treated APC (fixed APC) expressing MHC class II molecules were incubated with antigenic peptide for 6 h (HEL106-116 for E^d and PGCC81-104 for E^k). After this incubation, the prepulsed APC were washed and cultured with T hybridoma cells and AE101 series peptides. The antigenic peptide concentration during the prepulse was 12 μM for Ed and 20 μM for E^k. The AE101 series peptide concentrations were 64 μM for E^d and 16 μM for E^k. […]

Row | Substance | Activity in antigenic peptide prepulse assay, E^d (baseline = 1.0) ([1]; Table 26, supernatant 1:2) | Activity in antigenic peptide prepulse assay, E^k (baseline = 1.0) ([2]; Table 26, supernatant 1:8) | other results
1 | cyclic LRMKLPK (bridge (positions not given here); also: cyclic, ring type not given here) [AE381, “head-to-tail” cyclization from the amino-terminus to the carboxyl-terminus of AE114] |  |  | Activity in antigenic peptide prepulse assay, E^d (baseline = 1.0) ([1]; Table 28, supernatant 1:4): 0.19; Activity in antigenic peptide prepulse assay, E^k (baseline = 1.0) ([2]; Table 28, supernatant 1:4): 0.28
2 | Ac-LR HArg MYPK-NH2 [AE365] | 0.70 | 0.42 | 
3 | Ac-LR HArg KYP Cit-NH2 [AE366] | 0.44 | 0.94 | 
4 | Ac-LRMKLPK (lactam 4-C) [AE382] |  |  | Activity in antigenic peptide prepulse assay, E^d (baseline = 1.0) ([1]; Table 28, supernatant 1:4): 0.52; Activity in antigenic peptide prepulse assay, E^k (baseline = 1.0) ([2]; Table 28, supernatant 1:4): 0.70
5 | Ac-LRLKYPN-NH2 [AE368] | 0.55 | 0.92 | 
6 | Ac-LRMKYP[Cit]-NH2 [AE364] | 0.34 | 0.93 | 
7 | Ac-L[hArg]LKYPK-NH2 [AE361] | 0.83 | 1.00 | 
8 | Ac-LKMKYPK-NH2 [AE362] | 0.76 | 0.91 | 
9 | Ac-LK HArg KYPK-NH2 [AE363] | 0.60 | 0.97 | 
10 | Ac-A[Cit]NKNPK-NH2 [AE351] |  |  | Activity in antigenic peptide prepulse assay, E^d (baseline = 1.00) ([1]; supernatant 1:4): 0.42; Activity in antigenic peptide prepulse assay, E^k (baseline = 1.00) [2]: 0.90
11 | Ac-L[hArg]MKYPK-NH2 [AE360] | 0.91 | 0.94 | 
12 | Ac-FK HArg MYP Cit-NH2 [AE371] | 0.90 | 0.99 | 
13 | Ac-LRMKYPN-NH2 [AE370] | 0.74 | 0.58 | 
14 | Ac-LRMKNPF-NH2 [AE350] |  |  | Activity in antigenic peptide prepulse assay, E^d (baseline = 1.00) ([1]; supernatant 1:4): 0.82; Activity in antigenic peptide prepulse assay, E^k (baseline = 1.00) [2]: 0.86
15 | Ac-LR Orn K HArg PK-NH2 [AE340] |  |  | Activity in antigenic peptide prepulse assay, E^d (baseline = 1.00) ([1]; supernatant 1:4): 0.10; Activity in antigenic peptide prepulse assay, E^k (baseline = 1.00) [2]: 0.83
16 | Ac-LRMMYP[Cit]-NH2 [AE367] | 1.10 | 0.99 | 
